Laboratory results: patent US20250108017A1 (Aquestive Therapeutics, Inc., priority 2023, published 2025)
Read-outs that look alike come from different tables or passages of the source.

Tests used:
[1] = PBS (pH 7.4), 37°±1° C., n=6; cited from earlier work
[2] = in vivo
Method: The study compared various dose routes: sublingual (SL), per oral tablet (PO), subcutaneous (SC) and intravenous (IV). […] An Oral Irritation assessment was performed (SL film group): Predose (0) and 24 hr postdose by Draize scoring.

[3] = for average flux: 16 mg/mL
Method: A franz diffusion cell is obtained and prepared.
If testing films, one can perform the following next steps: (1) weigh films, punch to match diffusion area (or smaller), reweigh, record pre- and post-punching weight; (2) wet a donor area with approximately 100 μL of phosphate buffer; (3) place film on a donor surface, top with 400 μL of phosphate buffer, and start timers.
The tissue is dermatomed to precise thickness. • 4. […] The media is selected to ensure sink conditions. • 5.
The study compared concentrations of 4 mg/mL, 8 mg/mL, 16 mg/mL and 100 mg/mL. […]

CC(C)NCC(O)COc1cccc2ccccc12 (stereo not drawn) [PP]
concentration of saturated solution (C0) [1]: 588005 ± 5852 µg/mL

CNC[C@H](O)c1ccc(OC(=O)C(C)(C)C)c(OC(=O)C(C)(C)C)c1 (racemic) [Dipivefrin, dipivefrin]
% Bioavailability, DIPI AUC0-t [2]: 128.5%
% Bioavailability, EPI AUC0-t [2]: 131.0%

CNC[C@H](O)c1ccc(O)c(O)c1 [Epinephrine Bitartrate]
permeation as a function of solution pH [3]: slightly more favorable
average flux ([3]; 30 min): 0 μg/cm^2*min
average flux ([3]; 45 min): 0.2604 μg/cm^2*min
average flux ([3]; 60 min): 0.3125 μg/cm^2*min
average flux ([3]; 120 min): 0.6727 μg/cm^2*min
average flux ([3]; 180 min): 1.076 μg/cm^2*min
average flux ([3]; 240 min): 1.029 μg/cm^2*min
average flux ([3]; 300 min): 1.25 μg/cm^2*min
average flux ([3]; 360 min): 1.385 μg/cm^2*min
